From patent publication US12628857B2, “Compositions comprising human milk oligosaccharides for use in a subject to support night sleep duration” (SOCIETE DES PRODUITS NESTLE S.A., priority 2020, dated 2026)

Columns and labels:
breast-fed children [1] = assay: Correlation of breast milk HMO levels with sleep duration (BISQ), BCP-Enriched cohort; format: in vivo, human; conditions: FIG. 1
From the text: (§1) The “BISQ” questionnaire is the brief infant sleep questionnaire, this questionnaire has been developed to screen sleep problems in infants and young children. This questionnaire has also been commonly used in sleep research to quantify quantity and quality of sleep as well as sleep maturation (Sadeh A. “Sleep assessment method” Monographs Soc Res Child Dev 80(1) 2015).
(§2) In the framework of the BISQ questionnaire one or more parameters are observed and recorded that are selected in the group consisting of: nocturnal sleep duration (between the hours of 7 pm and 7 am); daytime sleep duration (between the hours of 7 am and 7 pm); number of night awaking; duration of wakefulness during the night hours (10 pm to 6 am); nocturnal sleep-onset time (the clock time at which the child falls asleep for the night); settling time (latency to falling asleep for the night); method of falling asleep; location of sleep; and preferred body position. […]
A subset of typically developing children (n=92) enrolled in the BCP cohort aged between 0-20 months who were breast-fed at the time of visit were included in this study. […] The collected BMs were analyzed for HMOs, including 2′-Fucosyllactose (2FL), 3′-Fucosyllactose (3FL), 3′-Sialyllactose (3SL), 6′-Sialyllactose (6SL), Lacto-N-tetraose (LNT), Lacto-N-neotetraose (LNnT), Lacto-N-fucopentaose I (LNFP1), and A-Tetrasaccharide. […]

breast-fed children [2] = assay: Association of breast milk HMO levels with BISQ sleep parameters, LIFE Child cohort; format: in vivo, human; conditions: 3 months of age
From the text: as §1, §2
A subset of typically developing children enrolled in the LIFE Child cohort aged between 0-12 months who were breast-fed at the time of visit were included in this study. and consists of breast milk samples—collected in mothers at 3, 6 and 12 months after child's birth—and questionnaires—collected during pregnancy and the first year of the child's life—containing information about children sleep and some related confounding factors. the analysis was conducted on 153 subjects at 3 months, 113 subjects at 6 months and 27 subjects at 12 months. The collected BMs were analyzed for HMOs, including 2′-Fucosyllactose (2FL), 3′-Fucosyllactose (3FL), 3′-Sialyllactose (3SL), 6′-Sialyllactose (6SL), Lacto-N-tetraose (LNT), Lacto-N-neotetraose (LNnT), Lacto-N-fucopentaose I (LNFP1), and A-Tetrasaccharide. The association between sleep parameters generated using the BISQ and breast milk HMO levels were evaluated using logistic regression models. […] Both LNT and total core-HMO correlated with total night sleep time assessed by the BISQ (p<0.05, FIGS. 3 and 4 respectively).

Compound	Correlation of total night-time sleep time with breast milk levels (breast-fed children [1]; BCP-Enriched, n=92, infant aged more than 11 months, p=0.05)	Correlation of total night time sleep with breast milk levels (breast-fed children [1]; BCP-enriched cohort, age >10 months, p<0.05)	Correlation of total night time sleep with breast milk levels (breast-fed children [2]; BISQ, p<0.05, FIGS. 3 and 4)	Dependence of the night sleep association on the method to go to sleep (need of rocking) (breast-fed children [2]; FIG. 3)	Correlation of total sleep time with breast milk levels (breast-fed children [2]; p<0.05, FIG. 2)
CC(=O)N[C@H]1[C@H]([C@H](O)[C@H](O)CO)O[C@@](O[C@H]2[C@@H](O)[C@@H](CO)O[C@@H](O[C@H]3[C@H](O)[C@@H](O)C(O)O[C@@H]3CO)[C@@H]2O)(C(=O)O)C[C@@H]1O (stereo partly drawn) [3SL, (6R)-5-Acetamido-3,5-dideoxy-6-[(1R,2R)-1,2,3-trihydroxypropyl]-β-L-threo-hex-2-ulopyranonosyl-(2→3)-β-D-galactopyranosyl-(1→4)-D-glucopyranose]	correlate positively	significantly correlated			
CC(=O)N[C@H]1[C@H](O[C@H]2[C@@H](O)[C@@H](CO)O[C@@H](O[C@H]3[C@H](O)[C@@H](O)C(O)O[C@@H]3CO)[C@@H]2O)O[C@H](CO)[C@@H](O)[C@@H]1O[C@@H]1O[C@H](CO)[C@H](O)[C@H](O)[C@H]1O (some centres unmarked) [LNT, Lacto-N-tetraose]			significantly correlated	independent of the method to go to sleep	significantly correlated
